# pEC50, pIC50: −log10 of the molar value.
# Experiments:
# PCSK9 [1] = target: T1, PCSK9 (Homo sapiens, UniProt Q8NBP7, G670E/V474I); assay: biochemical
# PCSK9 [2] = target: T1, PCSK9; assay: Assay 3 PCSK9 LDL-C uptake assay in HepG2 cells; type: cell-based; set-up: TEV site (C); His6 (C); host or cells: added to HepG2 (ATCC #HB-8065); details: 125 nM PCSK9, pHrodo Red-LDL, read-out: Assay 3 LDL uptake potency
# Excerpt: This assay measures for PCSK9 antagonist activity based on a test compound's capacity to restore LDL-C-uptake in HepG2 cells. The assay is based on exogenous PCSK9 and LDL-C complexed with a pH-sensitive dye. Outside the cells, at neutral pH, the pHrodo Red-LDL is dimly fluorescent but upon LDLR mediated endocytosis it fluoresces brightly. PCSK9 traffics the LDLR to intracellular degradation and reduces uptake of LDL-C. Inhibition of PCSK9 reduces LDLR degradation and the increased LDL-C uptake is quantified by fluorescence microscopy.
# • Cell medium: MEM supplemented with 10% FBS, 1×NEAA and Sodium Pyruvate • Assay medium: OptiMem supplemented with penicillin/streptomycin • Cells: HepG2 (ATCC #HB-8065)
# • 1. Cryopreserved HepG2 cells were thawed in assay medium and centrifuged for 5 min at 250 g. Supernatant was discarded and the cell pellet resuspended in cell medium and counted with a Nucleocounter. Cells were again centrifuged 5 min at 250 g and the pellet was resuspended to 500000 cells/mL in assay medium. • 2. 20 μL of above cell mix was dispensed into black μclear TC treated 384 well plates with Multidrop Combi and left at room temperature for 20 minutes. • 3. Plates were incubated at 37° C., 5% CO2 for 24 h
# • 1. Test compounds were prepared in concentration response in DMSO with a half-log dilution factor in DMSO in Echo 384 LDV plates starting at 10 mM. • 2. 30 nL of above test compounds were dispensed with Echo 655 to cells for a top concentration of 10 μM • 3. 10 μL PCSK9 in assay medium was dispensed to cells with Multidrop Combi for 125 nM final concentration in the wells. • 4. Plates were incubated at 37° C., 5% CO2 for 24 h
# • 1. 10 μL pHrodo Red-LDL in assay medium was dispensed to cells with Multidrop Combi for […] • 2. Plates were incubated at 37° C., 5% CO2 and imaged with the Incucyte S3 after 4 h and 24 h
# Image data was processed using Incucyte 2021, a software to identify cells and red fluorescent intensity. Screener was used to further process data. Data was normalized as % effect of the signal between median values of the on-plate controls of DMSO and 100 nM Evolocumab according to the formula % effect=−100*(x−DMSO)/(Evolocumab−DMSO) where x equals the measured signal. Concentration response data of the normalized values were fitted using a four-parameter logistic fit.
# [3] = target: GSK3β (Glycogen synthase kinase-3 beta) (Homo sapiens, UniProt P49841); assay: Assay 6 GSK3β assay (ThermoFisher Z-Lyte FRET); type: biochemical; details: ATP Conc: 10 μM, geometric mean; read-out: Assay 6 (GSK3β FRET-Z-Lyte Cr) GMean IC50
# Chain of GSK3β (Glycogen synthase kinase-3 beta) (P49841 whole entry): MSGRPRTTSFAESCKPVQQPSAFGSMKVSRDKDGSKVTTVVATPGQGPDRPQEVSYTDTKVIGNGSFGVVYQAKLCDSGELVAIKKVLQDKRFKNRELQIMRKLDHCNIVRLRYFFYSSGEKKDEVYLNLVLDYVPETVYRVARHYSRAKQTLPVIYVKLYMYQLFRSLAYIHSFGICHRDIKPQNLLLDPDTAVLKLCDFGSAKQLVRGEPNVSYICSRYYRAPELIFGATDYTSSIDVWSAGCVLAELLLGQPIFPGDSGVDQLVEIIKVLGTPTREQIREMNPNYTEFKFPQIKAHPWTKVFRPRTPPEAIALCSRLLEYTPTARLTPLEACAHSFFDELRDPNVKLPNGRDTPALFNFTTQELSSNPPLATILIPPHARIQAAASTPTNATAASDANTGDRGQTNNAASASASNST
# Method: This assay measures the activity of the compounds at GSK33 (Glycogen synthase kinase-3 beta).
# The test compounds were screened in 1% DMSO (final) in the well. For 10 point titrations, 3-fold serial dilutions are conducted from the starting concentration of 10 PM.
# Bar-coded Corning, low volume NBS, black 384-well plate • 1. 2.5 μL—4× Test Compound or 100 nL 100× plus 2.4 μL kinase buffer • 2. 5 μL—2× Peptide/Kinase Mixture • 3. 2.5 μL—4×ATP Solution • 4. 30-second plate shake • 5. 60-minute Kinase Reaction incubation at room temperature • 6. 5 μL—Development Reagent Solution • 7. 30-second plate shake • 8. 60-minute Development Reaction incubation at room temperature • 9. Read on fluorescence plate reader and analyse the data
# In step 2, the 2×GSK3β (GSK3 beta)/Ser/Thr (Glycogen synthase kinase-3 beta/Serine/Threonine) 09 mixture is prepared in 50 mM HEPES (4-(2-hydroxyethyl)-1-piperazineethanesulfonic acid) pH 7.5, 0.01% BRIJ-35, 10 mM MgCl2, 1 mM EGTA (egtazic acid). The final 10 μL Kinase Reaction consists of 0.22-0.92 ng GSK3β (GSK3 beta) and 2 PM Ser/Thr 09 in 50 mM HEPES pH 7.5, 0.01% BRIJ-35, 10 mM MgCl2, 1 mM EGTA.
# In step 3 the ATP Solution is diluted to a 4× working concentration in Kinase Buffer (50 mM HEPES pH 7.5, 0.01% BRIJ-35, 10 mM MgCl2, 1 mM EGTA).
# In Step 6 the Development Reagent is diluted 1:512 in Development Buffer (10× Novel PKC Lipid Mix: 2 mg/mL Phosphatidyl Serine, 0.2 mg/mL DAG in 20 mM HEPES, pH 7.4, 0.3% CHAPS).
# SelectScreen® Kinase Profiling Service uses XLfit from IDBS. The dose response curve is curve fit to model number 205 (sigmoidal dose-response model).
# [4] = target: T2, potassium ion channel hERG (Homo sapiens, UniProt Q12809); assay: Assay 5 hERG assay (patch clamp, CHO cells over-expressing hERG); type: cell-based; details: SyncroPatch 384PE, room temperature, geometric mean, read-out: Assay 5 (hERG Hu CHO if EPh CR-Syncro) GMean IC50
# T2 construct: expressed in transfected cells; host or cells: Chinese hamster ovary K1 (CHO)
# T2 sequence (Q12809 whole entry): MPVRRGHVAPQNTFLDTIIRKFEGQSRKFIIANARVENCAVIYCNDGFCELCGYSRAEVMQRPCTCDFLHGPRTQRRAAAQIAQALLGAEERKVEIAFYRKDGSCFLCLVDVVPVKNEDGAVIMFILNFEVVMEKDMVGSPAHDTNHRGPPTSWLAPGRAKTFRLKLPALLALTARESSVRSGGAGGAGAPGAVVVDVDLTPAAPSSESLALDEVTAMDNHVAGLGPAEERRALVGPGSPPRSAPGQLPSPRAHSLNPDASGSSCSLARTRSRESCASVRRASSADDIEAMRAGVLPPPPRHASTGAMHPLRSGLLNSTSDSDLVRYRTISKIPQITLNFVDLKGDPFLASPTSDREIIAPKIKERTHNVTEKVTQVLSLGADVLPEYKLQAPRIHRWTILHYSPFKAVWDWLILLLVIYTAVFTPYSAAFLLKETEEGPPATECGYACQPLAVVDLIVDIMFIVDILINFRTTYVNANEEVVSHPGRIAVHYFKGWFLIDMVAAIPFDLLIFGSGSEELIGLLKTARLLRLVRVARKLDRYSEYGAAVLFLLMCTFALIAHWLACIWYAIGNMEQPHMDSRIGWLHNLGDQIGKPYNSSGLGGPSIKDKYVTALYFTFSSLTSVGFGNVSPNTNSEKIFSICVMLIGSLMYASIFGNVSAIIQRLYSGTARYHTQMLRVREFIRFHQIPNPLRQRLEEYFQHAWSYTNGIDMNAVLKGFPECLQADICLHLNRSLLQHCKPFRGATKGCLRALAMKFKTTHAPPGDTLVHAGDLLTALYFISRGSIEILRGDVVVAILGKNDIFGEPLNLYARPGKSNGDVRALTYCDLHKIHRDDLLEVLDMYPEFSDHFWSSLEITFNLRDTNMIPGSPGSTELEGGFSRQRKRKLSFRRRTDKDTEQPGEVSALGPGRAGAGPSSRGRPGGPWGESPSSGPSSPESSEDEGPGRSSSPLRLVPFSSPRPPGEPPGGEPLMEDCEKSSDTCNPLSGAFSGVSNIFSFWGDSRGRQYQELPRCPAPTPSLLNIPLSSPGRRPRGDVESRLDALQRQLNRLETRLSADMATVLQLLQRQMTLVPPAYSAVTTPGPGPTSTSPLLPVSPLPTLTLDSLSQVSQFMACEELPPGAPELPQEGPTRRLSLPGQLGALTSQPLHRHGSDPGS
# Method: This assay (human Ether-d-go-go-Related Gene) measures activity of the compounds at the potassium ion channel hERG (human Ether-d-go-go-Related Gene).
# Experiments were performed on the SyncroPatch 384PE high throughput patch clamp platform at room temperature and medium resistance chips with 4 patch holes per site. Chinese hamster ovary K1 (CHO) cell lines over-expressing the ion channel of choice (hERG) were used in assay-ready format and kept in liquid nitrogen or were used from live culture. Cells were either thawed and diluted in HBSS or were detached from flasks and resuspended in HBSS. HBSS comprised 140 mM NaCl, 4 mM KCl, 10 mM HEPES and 5 mM Glucose (pH7.4). The internal patch clamp solution was KF 120 mM, KCl 20 mM, HEPES 10 mM, EGTA 10 mM, and 25 PM Escin (pH 7.2). After the sealing process was complete, the external solution was exchanged for external patch clamp solution comprising NaCl 80 mM, KCl 4 mM, HEPES 10 mM, CaCl2 2 mM, MgCl2 1 mM, glucose 5 mM, and NMDG 60 mM (pH 7.4). All solutions were stored at room temperature, except Escin, which was stored at 4° C. All test compounds were dispensed in greiner-bio 384 well plates and tested in a 6 point cumulative assay (final DMSO concentration 0.33%). Only wells that passed previously agreed acceptance criteria for this platform were used in this analysis (30 MegaOhm seal resistance, Z prime >0.4 and current size >0.2 nA). […]
# T1 sequence (Q8NBP7 with tags, fused parts or gaps V474I/G670E): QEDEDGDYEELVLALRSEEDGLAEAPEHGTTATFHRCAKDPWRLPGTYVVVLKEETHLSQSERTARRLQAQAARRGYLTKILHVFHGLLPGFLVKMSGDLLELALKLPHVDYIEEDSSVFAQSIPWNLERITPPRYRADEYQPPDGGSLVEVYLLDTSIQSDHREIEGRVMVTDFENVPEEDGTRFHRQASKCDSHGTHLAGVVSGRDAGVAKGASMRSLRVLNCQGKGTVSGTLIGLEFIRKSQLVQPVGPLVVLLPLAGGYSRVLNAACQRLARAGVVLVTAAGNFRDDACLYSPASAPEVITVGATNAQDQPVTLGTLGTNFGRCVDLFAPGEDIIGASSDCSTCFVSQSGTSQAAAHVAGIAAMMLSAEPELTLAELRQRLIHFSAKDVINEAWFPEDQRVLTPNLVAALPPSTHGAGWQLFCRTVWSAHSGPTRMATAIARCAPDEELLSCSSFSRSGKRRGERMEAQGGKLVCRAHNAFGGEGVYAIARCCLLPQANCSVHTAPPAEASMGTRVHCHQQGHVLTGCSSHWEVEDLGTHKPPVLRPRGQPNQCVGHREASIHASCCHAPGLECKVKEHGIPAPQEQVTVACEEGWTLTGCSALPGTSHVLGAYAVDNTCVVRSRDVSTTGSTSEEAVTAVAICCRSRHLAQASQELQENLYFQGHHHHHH
Compound,pIC50 (PCSK9 [1]),pEC50 (PCSK9 [2]),pIC50 [3],pIC50 [4]
"Cc1ccc(=O)n(-c2ccc(N[C@H]3CC[C@H](Nc4ncc(C(=O)NC5COC5)nn4)C3)nc2)c1 [Example 156, 3-(((1S,3S)-3-((5-Methyl-2-oxo-2H-[1,3′-bipyridin]-6′-yl)amino)cyclopentyl)amino)-N-(oxetan-3-yl)-1,2,4-triazine-6-carboxamide]",7.85,7.00,< 5.00,< 4.40
"Cc1cnc(N[C@H]2CC[C@H](Nc3ccc(-n4cc(-c5cn[nH]c5)ccc4=O)cn3)C2)nn1 [Example 202, 6′-(((1S,3S)-3-((6-Methyl-1,2,4-triazin-3-yl)amino)cyclopentyl)amino)-5-(1H-pyrazol-4-yl)-2H-[1,3′-bipyridin]-2-one]",8.43,7.00,5.12,< 4.40
"Cc1cnc(N[C@H]2CC[C@H](Nc3ccc(-n4cc(-c5c[nH]nn5)ccc4=O)cn3)C2)nn1 [Example 208, 6′-(((1S,3S)-3-((6-Methyl-1,2,4-triazin-3-yl)amino)cyclopentyl)amino)-5-(1H-1,2,3-triazol-4-yl)-2H-[1,3′-bipyridin]-2-one]",8.19,6.52,5.77,< 4.40
"N#Cc1cccn(-c2ccc(N[C@H]3CC[C@H](Nc4ncc(C(=O)NC5COC5)nn4)C3)nc2)c1=O [Example 159, 3-(((1S,3S)-3-((3-Cyano-2-oxo-2H-[1,3′-bipyridin]-6′-yl)amino)cyclopentyl)amino)-N-(oxetan-3-yl)-1,2,4-triazine-6-carboxamide]",8.39,7.00,< 5.00,< 4.40
"COc1ccc(=O)n(-c2ccc(NCC(CCO)CNc3ncc(C)nn3)nc2)c1 (racemic) [Example 317, rac-6′-((4-Hydroxy-2-(((6-methyl-1,2,4-triazin-3-yl)amino)methyl)butyl)amino)-5-methoxy-2H-[1,3′-bipyridin]-2-one]",5.35,< 6.10,,< 4.40
"Cn1c(=O)n(-c2ccc(N[C@H]3CC[C@H](Nc4ncc(C5CC5)nn4)C3)nc2)c2cc(P(C)(C)=O)ccc21 [Example 125, 3-(6-(((1S,3S)-3-((6-Cyclopropyl-1,2,4-triazin-3-yl)amino)cyclopentyl)amino)pyridin-3-yl)-5-(dimethylphosphoryl)-1-methyl-1,3-dihydro-2H-benzo[d]imidazol-2-one]",8.57,7.00,< 5.00,< 4.40
"O=c1ccc(OC(F)F)cn1-c1ccc(N[C@H]2CC[C@H](Nc3ncc(C4CC4)nn3)C2)nc1 [Example 166, 6′-(((1S,3S)-3-((6-Cyclopropyl-1,2,4-triazin-3-yl)amino)cyclopentyl)amino)-5-(difluoromethoxy)-2H-[1,3′-bipyridin]-2-one]",8.14,6.52,5.66,4.42
"Cc1cnc(N[C@H]2CC[C@H](Nc3ccc(-n4c(=O)n(C)c5cc(C#N)cnc54)cn3)C2)nn1 [Example 214, 1-Methyl-3-(6-(((1S,3S)-3-((6-methyl-1,2,4-triazin-3-yl)amino)cyclopentyl)amino)pyridin-3-yl)-2-oxo-2,3-dihydro-1H-imidazo[4,5-b]pyridine-6-carbonitrile]",8.47,6.15,< 5.00,< 4.40
"Cc1cnc(N[C@H]2CC[C@H](Nc3ccc(-n4cc(-c5cnn(C)c5)ccc4=O)cn3)C2)nn1 [Example 201, 6′-(((1S,3S)-3-((6-Methyl-1,2,4-triazin-3-yl)amino)cyclopentyl)amino)-5-(1-methyl-1H-pyrazol-4-yl)-2H-[1,3′-bipyridin]-2-one]",8.07,6.70,5.62,< 4.40
"O=C(NC1COC1)c1cnc(N[C@H]2CC[C@H](Nc3ccc(-n4cccc(Cl)c4=O)cn3)C2)nn1 [Example 157, 3-(((1S,3S)-3-((3-Chloro-2-oxo-2H-[1,3′-bipyridin]-6′-yl)amino)cyclopentyl)amino)-N-(oxetan-3-yl)-1,2,4-triazine-6-carboxamide]",8.68,7.00,5.11,< 4.40
"O=c1ccc(-c2nnn[nH]2)cn1-c1ccc(N[C@H]2CC[C@H](Nc3ncc(C4CC4)nn3)C2)nc1 [Example 124, 6′-(((1S,3S)-3-((6-Cyclopropyl-1,2,4-triazin-3-yl)amino)cyclopentyl)amino)-5-(1H-tetrazol-5-yl)-2H-[1,3′-bipyridin]-2-one]",9.00,7.00,5.97,< 4.40
"Cc1cnc(N[C@H]2CC[C@H](Nc3ccc(-n4cc(OC(F)F)ccc4=O)cn3)C2)nn1 [Example 185, 5-(Difluoromethoxy)-6′-(((1S,3S)-3-((6-methyl-1,2,4-triazin-3-yl)amino)cyclopentyl)amino)-2H-[1,3′-bipyridin]-2-one]",7.89,6.70,5.62,< 4.40
"O=C(NC1COC1)c1cnc(N[C@H]2CC[C@H](Nc3ccc(-n4cccc(OC(F)(F)F)c4=O)cn3)C2)nn1 [Example 160, N-(Oxetan-3-yl)-3-(((1S,3S)-3-((2-oxo-3-(trifluoromethoxy)-2H-[1,3′-bipyridin]-6′-yl)amino)cyclopentyl)amino)-1,2,4-triazine-6-carboxamide]",8.16,6.70,< 5.00,< 4.40

# Source: patent US20240228469A1, “PCSK9 INHIBITORS AND METHODS OF USE THEREOF” (AstraZeneca AB, priority 2022, published 2024)
